Experimental data as given in paper PMC8284454, “In Vitro Profiling of Antitubercular Compounds by Rapid, Efficient, and Nondestructive Assays Using Autoluminescent Mycobacterium tuberculosis” (Antimicrobial Agents and Chemotherapy, 2021).
≈ marks a conversion by molar mass, not a printed value. Like-named read-outs stand apart in the source and are kept apart here. Marks after values point to notes of the source that are not given here.

What was measured:
[1] = test system: M. tuberculosis H37Rv_LuxABCDE; experiment: microplate alamarBlue assay (MABA) MIC; conditions: 90% reduction of fluorescence, 7 days, 7H12 medium; SD from three independent experiments
[2] = test system: M. tuberculosis H37Rv_LuxABCDE; experiment: luminescence-based MBC assay (LMBCA) / time-kill; type: cell-based, Mycobacterium tuberculosis; conditions: for MBC: Mycobacterium tuberculosis, 99% reduction in RLU vs T0; for change of MBC values over time: over 21 days, luminescence time-kill; for time and/or concentration dependence of bactericidal activity: time-kill curves up to day 21
[3] = test system: M. tuberculosis H37Rv_LuxABCDE; experiment: luminescence-based MIC assay (LMICA); conditions: 90% reduction of luminescence, 7 days, 7H12 medium; SD from three independent experiments
[4] = test system: M. tuberculosis H37Rv_LuxABCDE; type: cell-based, Mycobacterium tuberculosis; conditions: 1:10,000-fold dilution; for PAE 10× MIC CFU/ml: 3 h exposure at 10× MIC; for PAE 100× MIC CFU/ml: 3 h exposure at 100× MIC
[5] = test system: J774-internalized M. tuberculosis (H37Rv); experiment: intracellular activity by luminescence (EC90); type: cell-based, Mycobacterium tuberculosis; conditions: for EC90: RLU; for onset of growth inhibition of internalized M. tuberculosis: early = EC90 obtainable by day 3, late = EC90 obtainable by day 5 or later
[6] = test system: macrophage-internalized M. tuberculosis; conditions: EC90, high-content imaging on day 5; read-out: Literature reported EC90; cited from earlier work
[7] = test system: M. tuberculosis H37Rv_LuxABCDE; experiment: MIC used to set PAE concentrations (Table 4); type: cell-based; conditions: Mycobacterium tuberculosis
Text: TABLE 4 Comparison of post antibiotic effect values (h) obtained via CFU and RLU measurement for two established TB drugs (rifampin and isoniazid) and two emerging TB lead candidates (ecumicin and rufomycin)^a | column: MIC (μM)

[8] = test system: M. tuberculosis H37Rv_LuxABCDE; experiment: microbe, parasite or virus in culture; type: cell-based, Mycobacterium tuberculosis; conditions: Mycobacterium tuberculosis, day 7, SD from three independent experiments, read-out: MBC (±SD) via CFU
[9] = test system: M. tuberculosis H37Rv_LuxABCDE; experiment: postantibiotic effect by luminescence (RLU); type: cell-based, Mycobacterium tuberculosis; conditions: 1.5 log10 RLU increase, 1:10,000-fold dilution; for PAE 10× MIC RLU: 3 h exposure at 10× MIC; for PAE 100× MIC RLU: 3 h exposure at 100× MIC
[10] = 168 h, day 7, SD from three independent experiments, read-out: MBC (±SD) via luminescence
[11] = 336 h, day 14, read-out: MBC (±SD) by luminescence on day 14
[12] = 504 h, day 21, read-out: MBC (±SD) by luminescence on day 21
[13] = Mycobacterium tuberculosis, H37RV, 72 h, EC90, day 3, J774 macrophages, read-out: Intracellular activity, EC90 (±SD) Day 3
[14] = Mycobacterium tuberculosis, H37RV, 120 h, EC90, day 5, J774 macrophages, read-out: Intracellular activity, EC90 (±SD) Day 5
[15] = Mycobacterium tuberculosis, H37RV, 168 h, EC90, day 7, J774 macrophages, read-out: Intracellular activity, EC90 (±SD) Day 7

| SMILES | MIC (±SD) MABA [1] | MBC [2, 10] [µM] | MBC [2, 11] [µM] | MBC [2, 12] [µM] | change of MBC values over time [2] | time and/or concentration dependence of bactericidal activity [2] | MIC (±SD) LMICA [3] | PAE 10× MIC CFU/ml [4] [h] | PAE 100× MIC CFU/ml [4] [h] | EC90 [5, 13] [nM] | EC90 [5, 14] [nM] | EC90 [5, 15] [nM] | onset of growth inhibition of internalized M. tuberculosis [5] | EC90 [6] [nM] | MIC [7] [µM] | MBC [8] [µM] | PAE 10× MIC RLU [9] [h] | PAE 100× MIC RLU [9] [h] | further results |
| --- | --- | --- | --- | --- | --- | --- | --- | --- | --- | --- | --- | --- | --- | --- | --- | --- | --- | --- | --- |
| NNC(=O)c1ccncc1 [Isoniazid] | 0.30 (0.05) μM | 0.57 (≈ 0.0782 µg/mL) | 2.56 (≈ 0.351 µg/mL) | 3.23 (≈ 0.443 µg/mL) | increase | mainly time dependent | 0.24 (0.08) μM | 0 | 0 | > 8000 | 1050 | 520 | late growth inhibition | 1200 | 0.3 (≈ 0.0411 µg/mL) | 0.46 (≈ 0.0631 µg/mL) | 0 | 0 | Toxicity against infected J774, percent inhibition at the highest tested concentration (infected J774; day 7, 8 μM): 8 (0)* percent; PAE 1× MIC CFU/ml ([4]; 3 h exposure at 1× MIC): 0 h; PAE 100× MIC CFU/ml ([4]; listed as isoniazid): no observable PAE; inhibition at 8 µM ([5]; Mycobacterium tuberculosis, H37RV, 72 h, day 3, 8 μM, read-out: percent inhibition at the highest tested concentration, intracellular activity Day 3): 77%; PAE 1× MIC RLU ([9]; 3 h exposure at 1× MIC): 0 h; PAE 100× MIC RLU ([9]; listed as isoniazid): no observable PAE |
| CO[C@H]1/C=C/O[C@@]2(C)Oc3c(C)c(O)c4c(O)c(c(/C=N/N5CCN(C)CC5)c(O)c4c3C2=O)NC(=O)/C(C)=C\C=C\[C@H](C)[C@H](O)[C@@H](C)[C@@H](O)[C@@H](C)[C@H](OC(C)=O)[C@@H]1C [Rifampin] | 0.060 (0.01) μM | 0.6 (≈ 0.494 µg/mL) | 0.48 (≈ 0.395 µg/mL) | 0.4 (≈ 0.329 µg/mL) | decreased | both time and concentration dependent | 0.041 (0.005) μM | 30 | 58 | > 2000 | 1550 | 640 | late growth inhibition | 2900 | 0.04 (≈ 0.0329 µg/mL) | 0.4 (≈ 0.329 µg/mL) | 26 | 92 | Toxicity against infected J774, percent inhibition at the highest tested concentration (infected J774; day 7, 2 μM): 2 (0)* percent; inhibition at 2 µM ([5]; Mycobacterium tuberculosis, H37RV, 72 h, day 3, 2 μM, read-out: percent inhibition at the highest tested concentration, intracellular activity Day 3): 60% |
